The record followed here is PMC10671360, “In Silico and In Vitro Study towards the Rational Design of 4,4′-Disarylbisthiazoles as a Selective α-Synucleinopathy Biomarker” (International Journal of Molecular Sciences, 2023).

Broadly, the Ki is a measure of affinity in units of concentration, obtained from inhibition or displacement.

Assay [1] has as its target T1, recombinant α-syn fibrils (Homo sapiens, UniProt P37840).
T1 construct: made in house
The assay is described as follows: Competition binding assay against [^3H]PiB, α-syn fibrils. The settings on record: for Selectivity Aβ/α-syn / Selectivity tau/α-syn: ratio of Ki, [^3H]PiB was used.

Assay [2] addresses T1, recombinant α-syn fibrils. The assay is described as follows: Competition binding assay against [^3H]DCVJ, α-syn fibrils. The settings on record: for Selectivity Aβ/α-syn / Selectivity tau/α-syn: ratio of Ki, [^3H]DCVJ was used; for Ki: [^3H]DCVJ was used (10 nM), α-synuclein aggregates 125 nM. The method, then:
The incubation of purified recombinant α-synuclein monomer (10 mg/mL) obtained as described by Uzuegbunam was carried out in PBS (pH 7.4) at 37 °C. The solution was left shaking at 900 rpm in an Eppendorf Thermomixer for up to 84 h. Determination of the concentration of the formed fibrils (α-syn) was carried out following the centrifugation of the reaction vial at 12,000× g for 5 min. The pellet obtained was washed thrice with 20 mM of Tris-HCl, pH 7.4. The supernatants from the three centrifugation steps were combined, and the concentration of the monomer in the resulting supernatant was determined in a BCA assay (Thermo Fisher Scientific, Waltham, MA, USA) (with a BSA standard curve). Determination of the concentration of α-syn was carried out by subtracting the amount of α-synuclein monomer in the supernatant from the initial amount used for fibrillation.
(§1) The pellets of the fibrils obtained above (Section 4.2.1) were resuspended in 20 mM of Tris-HCl, pH 7.4 and diluted as needed for the binding assays.
(§2) A fixed concentration of [^3H]DCVJ (10 nM) and α-synuclein aggregates (125 nM), prepared as described above (Section 4.2.3), was used with different final concentrations of the DABTAs from 0.01 to 100 nM (see SI Figure S1). The experiment was carried out in quintuplicate for each concentration. The mixture was incubated for 2 h in a final volume of 200 μL per well after dilution with 20 mM of Tris-HCl, pH 7.4. The incubated mixtures were filtered through a Perkin Elmer GF/B glass filter via a TOMTEC cell harvester and immediately washed thrice with 1 mL of deionized water. The filters containing the bound ligands were dried and afterwards mixed with 3 mL of BetaPlate Scint solution (Perkin Elmer Life Sciences, Waltham, MA, USA) and left there for 2 h before counting in a Wallac 1450 MicroBeta TriLux Liquid Scintillation Counter (PerkinElmer Life Sciences, Waltham, MA, USA). For the determination of the inhibition constants, data were analyzed using GraphPad Prism software (version 7.0) to obtain IC50 values by fitting the data to the equation Y = bottom + (top − bottom)/(1 + 10(x − log IC50)). Ki values were calculated from IC50 values using the equation Ki = IC50/(1 + [radioligand]/Kd). […] Further protocol was carried out as for [^3H]DCVJ (see SI Figure S3).

In assay [3] the target is T2, Aβ1−42 fibrils (Homo sapiens, UniProt P05067).
T2 construct: 1 mg of β-amyloid1–42 peptide (Abcam, Cambridge, UK); purchased Abcam
T2 sequence (P05067 672-713): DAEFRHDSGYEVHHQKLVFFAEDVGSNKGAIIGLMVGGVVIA
Kind of assay: Competition binding assay against [^3H]PiB, Aβ1−42 fibrils. The settings on record: read-out: Ki Aβ. On the procedure:
After the dissolution of 1 mg of β-amyloid1–42 peptide (Abcam, Cambridge, UK) in 50 μL of DMSO, 925 μL of Milli-Q® water was added to it, and the mixture was stirred. Finally, 25 μL of 1M Tris HCl, pH 7.4 was added to bring the final peptide concentration to 1 mg/mL. The mixture was then left to incubate at 37 °C for 30 h with shaking at 900 rpm. To separate the non-aggregated monomers from the formed fibrils, the reaction mixture was centrifuged at 12,000× g for 5 min, and the resulting pellet was washed three times with 500 μL of 20 mM Tris-HCl, pH 7.4. The supernatants from the three centrifugation steps were combined, and the concentration of the monomer in the resulting supernatant was determined in a BCA assay (Thermo Fisher Scientific, Waltham, MA, USA) (with a BSA standard curve). Determination of the concentration of fibrils formed was carried out by subtracting the amount of β-amyloid1−42 peptide monomer in the supernatant from the initial amount used for fibrillation.
as §1, §2
Further procedures followed the same already described in Section 4.2.3.1 (See SI Figure S4).

Assay [4] concerns the target tau fibrils (Homo sapiens, UniProt P10636). Kind of assay: Competition binding assay against [^3H]PiB, tau fibrils. On the procedure: as §2, with “Recombinant tau monomer (R&D systems, Minneapolis, MN, USA) was dissolved in 20 mM of Tris HCl, pH 8.0, 100 mM of NaCl, 25 μM of low-MW heparin, and 0.5 mM of dithiothreitol to a final concentration of 300 µg/mL. The mixture was incubated with shaking at 900 rpm at 37 °C for 48 h. To separate the non-aggregated monomers from the formed fibrils, the reaction mixture was centrifuged at 12,000× g for 5 min, and the resulting pellet was washed three times with 500 μL of 20 mM Tris-HCl, pH 7.4. The supernatants from the three centrifugation steps were combined, and the concentration of the monomer in the resulting supernatant was determined in a BCA assay(Thermo Fisher Scientific, Waltham, MA, USA) (with a BSA standard curve). Determination of the concentration of fibrils formed was carried out by subtracting the amount of tau peptide monomer in the supernatant from the initial amount used for fibrillation. The pellets of the fibrils obtained above (Section 4.2.1) were resuspended in 20 mM of Tris-HCl, pH 7.4 and diluted as needed for the binding assays. A fixed” for “A fixed”, “Figure S3). […] Further procedures followed the same already described in Section 4.2.3.1 (See SI Figure S4).” for “Figure S3).”

The structures appear in SMILES notation.

tau fibrils, sequence (P10636 2-758): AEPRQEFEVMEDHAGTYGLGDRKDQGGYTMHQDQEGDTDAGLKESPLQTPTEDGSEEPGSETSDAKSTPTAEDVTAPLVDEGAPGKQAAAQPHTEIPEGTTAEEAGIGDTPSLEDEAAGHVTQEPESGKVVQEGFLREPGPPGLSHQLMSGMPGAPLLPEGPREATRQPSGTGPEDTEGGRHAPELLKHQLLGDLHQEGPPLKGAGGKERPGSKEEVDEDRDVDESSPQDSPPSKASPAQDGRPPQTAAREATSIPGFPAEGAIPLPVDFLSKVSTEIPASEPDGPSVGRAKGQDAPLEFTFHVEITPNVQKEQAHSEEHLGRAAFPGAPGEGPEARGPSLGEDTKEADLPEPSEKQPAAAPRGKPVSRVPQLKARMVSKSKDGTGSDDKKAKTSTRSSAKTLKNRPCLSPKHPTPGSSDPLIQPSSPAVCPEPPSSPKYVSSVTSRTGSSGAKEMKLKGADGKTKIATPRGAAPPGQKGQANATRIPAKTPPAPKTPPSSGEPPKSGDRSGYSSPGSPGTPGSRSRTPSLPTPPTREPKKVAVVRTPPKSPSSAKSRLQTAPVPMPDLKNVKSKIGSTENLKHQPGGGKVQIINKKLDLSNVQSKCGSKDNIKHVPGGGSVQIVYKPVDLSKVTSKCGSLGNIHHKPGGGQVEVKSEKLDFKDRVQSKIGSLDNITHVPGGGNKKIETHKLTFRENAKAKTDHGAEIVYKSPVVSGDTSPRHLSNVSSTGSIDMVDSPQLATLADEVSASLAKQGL

As to `COc1ccc(-c2csc(-c3nc(-c4ccc5c(c4)OCO5)cs3)n2)cc1F` [d2, 4-(Benzo[d][1,3]dioxol-5-yl)-4′-(3-fluoro-4-methoxyphenyl)-2,2′-bithiazole], the values for the Ki in assay [1], in assay [3] and in assay [4] were 2.32 nM, 147 nM and 681 nM, respectively. Further, the “Selectivity Aβ/α-syn” value in assay [1] is 63.4; in assay [2] it was 198.1. Further, the “Selectivity tau/α-syn” value in assay [1] is 293.4; in assay [2], over 819.7.

In the case of `COc1ccc(-c2csc(-c3nc(-c4cnc5c(c4)OCO5)cs3)n2)cc1F` [d4, 6-(4′-(3-Fluoro-4-methoxyphenyl)-[2,2′-bithiazol]-4-yl)-[1,3]dioxolo[4,5-b]pyridine], the Ki amounted to 2.56 nM in assay [1], 87.4 nM in assay [3] and 364 nM in assay [4]. The “Selectivity Aβ/α-syn” value was 34.1 in assay [1] and 417.1 in assay [2]. Also, the figures for the “Selectivity tau/α-syn” value in assay [1] and in assay [2] were 142.2 and over 1515.2, respectively.

On to `FCCOCCOCCOc1cnc(-c2csc(-c3nc(-c4ccc5c(c4)OCO5)cs3)n2)nc1` [f7, 4-(Benzo[d][1,3]dioxol-5-yl)-4′-(5-(2-(2-(2-fluoroethoxy)ethoxy)ethoxy)pyrimidin-2-yl)-2,2′-bithiazole], for which the inhibition constant (Ki) in assay [1] is 1.17 nM; in assay [2], 1.51 nM; in assay [3] it was 76.4 nM; in assay [4], 242 nM. Further, the “Selectivity Aβ/α-syn” value in assay [1] was found to be 65.3. Moreover, in assay [1], the “Selectivity tau/α-syn” value was determined as 206.9.

On to `COc1ccc(-c2csc(-c3nc(-c4cnc5c(c4)OCO5)cs3)n2)cc1OCCOCCF` [f9, 6-(4′-(3-(2-(2-Fluoroethoxy)ethoxy)-4-methoxyphenyl)-[2,2′-bithiazol]-4-yl)-[1,3]dioxolo [4,5-b]pyridine], for which the Ki in assay [1] was 0.96 nM; in assay [2] it was 0.84 nM; in assay [3] it was 47.6 nM; in assay [4], 1130 nM. In addition, the “Selectivity Aβ/α-syn” value in assay [1] is given as 49.6. Moreover, in assay [1], the “Selectivity tau/α-syn” value worked out at 1177.1.

Regarding `FCCOCCOCCOc1ccc(-c2csc(-c3nc(-c4cnc5c(c4)OCO5)cs3)n2)cc1F` [f10, 6-(4′-(3-Fluoro-4-(2-(2-(2-fluoroethoxy)ethoxy)ethoxy)phenyl)-[2,2′-bithiazol]-4-yl)-[1,3]dioxolo[4,5-b]pyridine], the inhibitory constant (Ki) amounted to 0.93 nM in assay [1], 1 nM in assay [2], 37.3 nM in assay [3] and 615 nM in assay [4]. Moreover, the “Selectivity Aβ/α-syn” value in assay [1] was 40.1.

Consider `FCCOc1ccc(-c2csc(-c3nc(-c4ccc5c(c4)OCO5)cs3)n2)cc1` [f11, 4-(Benzo[d][1,3]dioxol-5-yl)-4′-(4-(2-fluoroethoxy)phenyl)-2,2′-bithiazole], for which the inhibitory constant (Ki) was 3.71 nM in assay [1], 99.6 nM in assay [3] and 499 nM in assay [4]. In addition, the “Selectivity Aβ/α-syn” value in assay [1] was 26.9.

As for `FCCOCCOCCOc1ccc(-c2csc(-c3nc(-c4cnc5c(c4)OCO5)cs3)n2)cc1` [f12, 6-(4′-(4-(2-(2-(2-Fluoroethoxy)ethoxy)ethoxy)phenyl)-[2,2′-bithiazol]-4-yl)-[1,3]dioxolo[4,5-b]pyridine], in assay [1], the inhibition constant (Ki) is 0.92 nM, the “Selectivity Aβ/α-syn” value worked out at 42.1 and the “Selectivity tau/α-syn” value came out at 1068.5. Also, in assay [3], the inhibition constant (Ki) came out at 38.7 nM. Further, in assay [4], the inhibition constant Ki is 983 nM.

For the molecule `FCCOCCOCCOc1cnc(-c2csc(-c3nc(-c4cnc5c(c4)OCO5)cs3)n2)nc1` [f13, 6-(4′-(5-(2-(2-(2-Fluoroethoxy)ethoxy)ethoxy)pyrimidin-2-yl)-[2,2′-bithiazol]-4-yl)-[1,3]dioxolo[4,5-b]pyridine], in assay [1], the Ki amounted to 0.38 nM, the “Selectivity Aβ/α-syn” value is reported as 122.6 and the “Selectivity tau/α-syn” value is recorded as 315.8. Further, in assay [3], the inhibition constant Ki was 46.6 nM. Besides, the inhibitory constant (Ki) in assay [4] worked out at 120 nM.

As to `COc1ccc(-c2csc(-c3nc(-c4ccc5c(c4)OCO5)cs3)n2)cc1OCCOCCOCCF` [f14, 4-(Benzo[d][1,3]dioxol-5-yl)-4′-(3-(2-(2-(2-fluoroethoxy)ethoxy)ethoxy)-4-methoxyphenyl)-2,2′-bithiazole], in assay [1], the Ki came out at 1.74 nM, the “Selectivity Aβ/α-syn” value came out at 120.8 and the “Selectivity tau/α-syn” value is recorded as 380.6. In addition, in assay [3], the Ki was found to be 210 nM. Besides, in assay [4], the inhibition constant (Ki) turned out to be 662 nM.

`COc1cnc(-c2csc(-c3nc(-c4ccc5c(c4)OCO5)cs3)n2)nc1` [f15, 4-(Benzo[d][1,3]dioxol-5-yl)-4′-(5-methoxypyrimidin-2-yl)-2,2′-bithiazole]: in assay [1], the inhibition constant Ki was 2.45 nM, the “Selectivity Aβ/α-syn” value is 24.2 and the “Selectivity tau/α-syn” value came out at 288.6. The inhibition constant (Ki) in assay [3] was found to be 59.3 nM. Also, the Ki in assay [4] stood at 707 nM.

In the case of `COc1ccc(-c2csc(-c3nc(-c4cnc5c(c4)OCO5)cs3)n2)cc1` [f17, 6-(4′-(4-Methoxyphenyl)-[2,2′-bithiazol]-4-yl)-[1,3]dioxolo[4,5-b]pyridine], the inhibitory constant (Ki) in assay [1] turned out to be 1.78 nM; in assay [3], 167 nM; in assay [4] it was 513 nM. In assay [1], the “Selectivity Aβ/α-syn” value is on record as 94.1. Besides, in assay [1], the “Selectivity tau/α-syn” value amounted to 288.0.

For the molecule `COc1ccc(-c2csc(-c3nc(-c4cnc5c(c4)OCO5)cs3)n2)c(OC)c1` [f19, 6-(4′-(2,4-Dimethoxyphenyl)-[2,2′-bithiazol]-4-yl)-[1,3]dioxolo[4,5-b]pyridine], the Ki worked out at 1.35 nM in assay [1], 149 nM in assay [3] and 671 nM in assay [4]. Besides, the “Selectivity Aβ/α-syn” value in assay [1] turned out to be 110.1. For the same molecule, the “Selectivity tau/α-syn” value in assay [1] was 497.3.

For the molecule `FCCOCCOc1ccc(-c2csc(-c3nc(-c4cnc5c(c4)OCO5)cs3)n2)c(OCCOCCF)c1` [f20, 6-(4′-(2,4-Bis(2-(2-fluoroethoxy)ethoxy)phenyl)-[2,2′-bithiazol]-4-yl)-[1,3]dioxolo[4,5-b]pyridine], the results for the Ki in assay [1], in assay [3] and in assay [4] were 1.31 nM, 221 nM and 815 nM, respectively. Further, in assay [1], the “Selectivity Aβ/α-syn” value came out at 168.9. Further, the “Selectivity tau/α-syn” value in assay [1] came out at 621.8.
